Experimental findings from ChEMBL document CHEMBL1140425, “Discovery of indoles as potent and selective inhibitors of the deacetylase SIRT1” (J Med Chem, 2005) are described below.

The target of series [1] is T1, NAD-dependent protein deacetylase sirtuin-3, mitochondrial (Homo sapiens, UniProt Q9NTG7).
T1 sequence (Q9NTG7 whole entry): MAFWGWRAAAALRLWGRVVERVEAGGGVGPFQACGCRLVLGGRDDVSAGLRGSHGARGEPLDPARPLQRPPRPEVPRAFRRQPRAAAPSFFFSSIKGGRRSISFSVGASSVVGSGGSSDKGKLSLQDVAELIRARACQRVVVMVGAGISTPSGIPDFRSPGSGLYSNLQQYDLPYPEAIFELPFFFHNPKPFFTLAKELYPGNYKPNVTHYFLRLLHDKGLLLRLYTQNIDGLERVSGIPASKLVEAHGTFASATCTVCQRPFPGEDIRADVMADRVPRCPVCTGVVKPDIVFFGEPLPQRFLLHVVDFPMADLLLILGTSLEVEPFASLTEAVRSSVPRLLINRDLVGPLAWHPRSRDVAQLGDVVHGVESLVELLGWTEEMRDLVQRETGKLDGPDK
Description: Inhibitory activity against recombinant human SIRT3 expressed in Escherichia coli by fluorimetric assay.

The target of a further series is Histone deacetylase. The series can be described thus: Inhibitory activity against human HDAC in HeLa cell extract by fluorimetric assay. Type of series: cell-free.
The next series has as its target CYP3A4 (Homo sapiens, UniProt P08684). Description: Percent inhibitory activity against human CYP3A4 at 1uM. Type of series: ADME.
A further series addresses CYP2D6 (Homo sapiens, UniProt P10635). The series can be described thus: Percent inhibitory activity against human CYP2D6 at 1uM. The series is classed as ADME.
Another series addresses CYP2C9 (Homo sapiens, UniProt P11712). Description: Percent inhibitory activity against human CYP2C9 at 1uM. Type of series: ADME.
A further series deals with CYP2C19 (Homo sapiens, UniProt P33261). The series can be described thus: Percent inhibitory activity against human CYP2C19 at 1uM. The series is classed as ADME.
Chain of CYP2C19 (P33261 whole entry): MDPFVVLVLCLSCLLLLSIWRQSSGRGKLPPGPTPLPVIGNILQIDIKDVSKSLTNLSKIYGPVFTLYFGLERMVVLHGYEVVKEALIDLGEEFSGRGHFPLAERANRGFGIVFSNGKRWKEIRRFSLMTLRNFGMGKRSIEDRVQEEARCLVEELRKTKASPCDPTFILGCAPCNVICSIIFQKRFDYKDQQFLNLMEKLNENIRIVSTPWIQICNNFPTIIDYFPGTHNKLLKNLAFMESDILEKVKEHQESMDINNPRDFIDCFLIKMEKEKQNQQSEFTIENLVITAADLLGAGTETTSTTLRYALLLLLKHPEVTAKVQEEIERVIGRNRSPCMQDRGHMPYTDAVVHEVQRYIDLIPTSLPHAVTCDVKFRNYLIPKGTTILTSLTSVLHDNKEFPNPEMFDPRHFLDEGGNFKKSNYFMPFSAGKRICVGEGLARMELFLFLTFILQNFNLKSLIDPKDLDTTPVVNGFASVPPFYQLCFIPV
The target of another series is T2, CYP1A2 (Homo sapiens, UniProt P05177).
T2 sequence (P05177 whole entry): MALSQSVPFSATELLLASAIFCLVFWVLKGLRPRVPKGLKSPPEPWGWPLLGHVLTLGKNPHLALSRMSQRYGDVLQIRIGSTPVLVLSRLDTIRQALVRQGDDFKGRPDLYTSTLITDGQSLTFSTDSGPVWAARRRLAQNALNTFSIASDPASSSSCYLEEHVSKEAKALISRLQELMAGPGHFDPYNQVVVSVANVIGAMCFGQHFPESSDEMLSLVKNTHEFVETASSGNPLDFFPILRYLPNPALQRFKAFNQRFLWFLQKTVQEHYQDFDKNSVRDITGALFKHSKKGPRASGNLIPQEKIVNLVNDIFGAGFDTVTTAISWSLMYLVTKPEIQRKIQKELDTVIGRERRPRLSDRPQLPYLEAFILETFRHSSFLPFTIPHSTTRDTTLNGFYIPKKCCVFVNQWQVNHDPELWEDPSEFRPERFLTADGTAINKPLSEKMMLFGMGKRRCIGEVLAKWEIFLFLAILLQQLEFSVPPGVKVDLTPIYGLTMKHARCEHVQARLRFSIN
The series can be described thus: Percent inhibitory activity against human CYP1A2 at 1uM. The series is classed as ADME.

In series [2] the target is hERG (KCNH2) potassium channel (Homo sapiens, UniProt Q12809). Description: Percentage inhibitory activity against hERG potassium channel transfected in CHO cells at 10uM. The settings on record: CHO cells transfected with hERG.
Chain of hERG (KCNH2) potassium channel (Q12809 whole entry): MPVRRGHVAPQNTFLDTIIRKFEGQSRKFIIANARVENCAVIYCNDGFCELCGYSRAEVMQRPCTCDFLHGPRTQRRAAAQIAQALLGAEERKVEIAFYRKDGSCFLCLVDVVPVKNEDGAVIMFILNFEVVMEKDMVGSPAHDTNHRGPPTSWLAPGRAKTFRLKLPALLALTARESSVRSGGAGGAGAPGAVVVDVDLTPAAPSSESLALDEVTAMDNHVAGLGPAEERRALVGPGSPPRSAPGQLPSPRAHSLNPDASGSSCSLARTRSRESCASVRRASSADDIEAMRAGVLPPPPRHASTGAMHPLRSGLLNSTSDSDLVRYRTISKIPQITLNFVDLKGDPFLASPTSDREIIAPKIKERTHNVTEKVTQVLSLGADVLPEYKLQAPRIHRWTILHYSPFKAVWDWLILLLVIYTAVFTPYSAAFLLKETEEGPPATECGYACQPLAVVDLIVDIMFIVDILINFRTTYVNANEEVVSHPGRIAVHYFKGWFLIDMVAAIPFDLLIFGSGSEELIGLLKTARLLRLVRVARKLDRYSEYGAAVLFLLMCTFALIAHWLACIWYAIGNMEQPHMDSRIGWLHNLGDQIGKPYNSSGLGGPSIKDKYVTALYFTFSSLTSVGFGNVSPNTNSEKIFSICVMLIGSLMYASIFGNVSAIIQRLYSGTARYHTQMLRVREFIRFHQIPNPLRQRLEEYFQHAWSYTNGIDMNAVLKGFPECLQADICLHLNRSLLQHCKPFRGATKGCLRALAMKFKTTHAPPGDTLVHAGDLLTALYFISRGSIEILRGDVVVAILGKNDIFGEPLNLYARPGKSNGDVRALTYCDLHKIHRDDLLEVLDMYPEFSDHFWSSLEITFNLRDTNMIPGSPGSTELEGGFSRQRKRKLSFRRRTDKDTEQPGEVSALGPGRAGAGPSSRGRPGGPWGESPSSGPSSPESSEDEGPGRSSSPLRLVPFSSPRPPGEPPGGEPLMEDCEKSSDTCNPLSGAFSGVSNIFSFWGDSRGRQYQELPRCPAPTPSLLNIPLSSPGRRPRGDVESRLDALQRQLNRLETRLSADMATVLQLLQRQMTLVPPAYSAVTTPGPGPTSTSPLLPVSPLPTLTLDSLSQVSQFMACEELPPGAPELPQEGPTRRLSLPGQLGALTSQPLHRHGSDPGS
For series [3], the target named is T3, NAD-dependent protein deacetylase sirtuin-2 (Homo sapiens, UniProt Q8IXJ6).
T3 sequence (Q8IXJ6 whole entry): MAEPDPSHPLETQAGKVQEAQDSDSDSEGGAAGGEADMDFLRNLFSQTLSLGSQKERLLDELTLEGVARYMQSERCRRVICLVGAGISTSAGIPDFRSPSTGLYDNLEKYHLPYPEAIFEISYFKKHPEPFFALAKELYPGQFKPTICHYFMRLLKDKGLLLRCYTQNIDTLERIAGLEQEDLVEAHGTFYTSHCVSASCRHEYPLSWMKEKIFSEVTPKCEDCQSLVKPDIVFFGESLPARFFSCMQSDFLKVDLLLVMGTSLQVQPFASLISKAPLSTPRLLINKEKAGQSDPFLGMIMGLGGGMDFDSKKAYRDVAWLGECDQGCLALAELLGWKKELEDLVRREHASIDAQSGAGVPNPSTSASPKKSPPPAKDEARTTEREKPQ
Description: Inhibitory activity against recombinant human SIRT2 expressed in Escherichia coli by fluorimetric assay

For series [4], the target named is T4, NAD-dependent protein deacetylase sirtuin-1 (Homo sapiens, UniProt Q96EB6).
T4 sequence (Q96EB6 whole entry): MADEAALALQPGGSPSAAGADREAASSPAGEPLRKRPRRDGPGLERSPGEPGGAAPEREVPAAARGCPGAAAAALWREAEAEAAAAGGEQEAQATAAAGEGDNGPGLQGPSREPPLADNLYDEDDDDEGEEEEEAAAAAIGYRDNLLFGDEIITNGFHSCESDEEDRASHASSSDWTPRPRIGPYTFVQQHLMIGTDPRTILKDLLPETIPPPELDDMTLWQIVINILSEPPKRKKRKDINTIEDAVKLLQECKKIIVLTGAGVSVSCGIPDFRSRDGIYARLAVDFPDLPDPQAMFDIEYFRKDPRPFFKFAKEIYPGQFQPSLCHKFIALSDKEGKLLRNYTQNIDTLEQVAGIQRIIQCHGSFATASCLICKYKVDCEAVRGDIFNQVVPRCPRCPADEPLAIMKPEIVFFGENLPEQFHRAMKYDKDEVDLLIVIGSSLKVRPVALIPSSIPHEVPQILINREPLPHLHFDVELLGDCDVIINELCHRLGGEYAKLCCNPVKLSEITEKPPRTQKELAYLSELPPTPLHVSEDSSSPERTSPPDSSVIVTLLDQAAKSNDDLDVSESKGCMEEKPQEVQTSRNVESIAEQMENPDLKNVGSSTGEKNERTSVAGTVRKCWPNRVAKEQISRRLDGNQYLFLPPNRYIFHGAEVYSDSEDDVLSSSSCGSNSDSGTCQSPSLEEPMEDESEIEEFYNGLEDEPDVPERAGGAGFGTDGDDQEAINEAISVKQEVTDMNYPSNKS
Description: Inhibitory activity against recombinant human SIRT1 expressed in Escherichia coli by fluorimetric assay

For series [5], the target named is T4, NAD-dependent protein deacetylase sirtuin-1. This is another data set of the same source.
Description: Inhibitory activity against human SIRT1 by radiochemical Nicotinamide release assay
Series [6] can be described thus: Half life in rat liver microsomes. The series is classed as ADME, Microsome.
The test system of the next series is Liver microsomes. The series can be described thus: Stability in rat liver microsomes at 10 uM. Type of series: ADME, Microsome. In general terms: Liver microsomes are a subcellular fraction often used to study metabolism.
Series [7] can be described thus: Serum half life in mice administered with 10 mg/kg, po. Type of series: ADME, organism-based. Details: dose 10 mg/kg, route oral. The following applies: C57bl/6J, mouse.

Chain of CYP2C9 (P11712 whole entry): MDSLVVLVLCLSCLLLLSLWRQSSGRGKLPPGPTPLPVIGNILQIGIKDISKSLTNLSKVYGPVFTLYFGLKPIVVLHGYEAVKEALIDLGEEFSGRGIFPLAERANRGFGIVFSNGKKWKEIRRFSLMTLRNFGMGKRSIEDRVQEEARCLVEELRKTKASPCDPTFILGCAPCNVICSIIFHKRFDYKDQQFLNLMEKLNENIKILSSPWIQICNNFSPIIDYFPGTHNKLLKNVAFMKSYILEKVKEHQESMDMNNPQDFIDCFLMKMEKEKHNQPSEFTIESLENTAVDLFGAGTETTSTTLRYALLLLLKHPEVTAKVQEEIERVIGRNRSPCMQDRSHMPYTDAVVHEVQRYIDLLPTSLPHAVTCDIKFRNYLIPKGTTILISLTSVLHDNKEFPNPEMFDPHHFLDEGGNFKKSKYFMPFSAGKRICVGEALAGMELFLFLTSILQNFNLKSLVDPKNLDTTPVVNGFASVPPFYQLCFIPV
Chain of CYP3A4 (P08684 whole entry): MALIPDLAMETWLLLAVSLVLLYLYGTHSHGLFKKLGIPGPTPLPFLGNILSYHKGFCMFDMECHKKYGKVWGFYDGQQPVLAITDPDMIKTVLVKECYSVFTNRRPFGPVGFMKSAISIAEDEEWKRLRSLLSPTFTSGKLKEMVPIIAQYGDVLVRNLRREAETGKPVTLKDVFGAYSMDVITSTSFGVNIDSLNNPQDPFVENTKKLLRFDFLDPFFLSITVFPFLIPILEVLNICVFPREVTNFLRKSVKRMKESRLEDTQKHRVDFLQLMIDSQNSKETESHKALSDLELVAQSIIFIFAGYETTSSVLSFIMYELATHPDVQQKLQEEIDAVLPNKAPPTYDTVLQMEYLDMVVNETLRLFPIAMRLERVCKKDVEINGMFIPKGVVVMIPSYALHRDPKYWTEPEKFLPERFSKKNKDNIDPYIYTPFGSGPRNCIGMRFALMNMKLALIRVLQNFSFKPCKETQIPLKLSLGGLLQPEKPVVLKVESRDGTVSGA
Chain of CYP2D6 (P10635 whole entry): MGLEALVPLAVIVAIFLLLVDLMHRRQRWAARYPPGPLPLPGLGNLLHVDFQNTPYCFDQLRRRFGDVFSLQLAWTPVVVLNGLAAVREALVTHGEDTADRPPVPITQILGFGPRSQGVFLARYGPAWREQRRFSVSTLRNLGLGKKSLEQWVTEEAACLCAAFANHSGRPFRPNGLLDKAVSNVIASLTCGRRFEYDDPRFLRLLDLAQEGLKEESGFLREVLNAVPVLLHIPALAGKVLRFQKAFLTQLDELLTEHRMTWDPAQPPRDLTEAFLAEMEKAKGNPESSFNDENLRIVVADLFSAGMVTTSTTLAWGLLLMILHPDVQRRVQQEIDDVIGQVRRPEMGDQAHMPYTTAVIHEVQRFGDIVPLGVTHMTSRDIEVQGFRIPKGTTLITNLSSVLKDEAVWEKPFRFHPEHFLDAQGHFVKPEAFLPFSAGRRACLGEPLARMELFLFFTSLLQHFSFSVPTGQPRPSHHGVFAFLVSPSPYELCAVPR

As for `NC(=O)C1CCCc2c1[nH]c1ccccc21` (configuration not stated), the IC50 (usually the point on the concentration scale where inhibition reaches its midpoint) in series [1] is more than 100 µM; against Histone deacetylase it was more than 100 µM; in series [3] it was 24.8 µM. The inhibition – broadly, the drop in the measured response relative to a control, in per cent – at 1 µM against CYP3A4 is -22%; at CYP2D6, -4%; against CYP2C9 it was -8%; at CYP2C19 it was 5%; at CYP1A2 it was 4%. Besides, the inhibition at 10 µM in series [2] stood at 0%.

On to `Cc1ccc2[nH]c3c(c2c1)CCCC3C(N)=O` (configuration not stated), for which the IC50 was more than 100 µM in series [1]; more than 100 µM on Histone deacetylase; 0.205 µM in series [4]; 11.5 µM in [3]; 2.5 µM in series [5]. For the same compound, the inhibition at 1 µM was -16% on CYP3A4; -3% against CYP2D6; -9% at CYP2C9; 9% on CYP2C19; 7% at CYP1A2. In series [2], the inhibition at 10 µM is 0%.

In series [4], `CCOC(=O)C1CCCc2c1[nH]c1ccc(Cl)cc21` (configuration not stated) displayed an IC50 of more than 100 µM.

`NC(=O)CNC(=O)C1CCCc2c1[nH]c1ccc(Cl)cc21` (configuration not stated) displayed an IC50 in [4] of more than 100 µM.

In turn, `O=C(O)C1CCCc2c1[nH]c1ccc(Cl)cc21` (configuration not stated) showed an IC50 in series [4] of more than 100 µM.

Compound `O=C(NO)C1CCCc2c1[nH]c1ccc(Cl)cc21` (configuration not stated) gave a half-maximal inhibitory concentration (IC50) in series [4] of 77.6 µM.

`NC(=O)C1CCc2c([nH]c3ccc(Cl)cc23)C1` (configuration not stated) gave an IC50 in series [4] of 34.5 µM.

In the case of `Cc1ccc2[nH]c3c(c2c1)CCCC3CN` (configuration not stated), in series [4], the IC50 is more than 100 µM.

Take `CCNC(=O)C1CCCc2c1[nH]c1ccc(Cl)cc21` (configuration not stated): in series [4], the IC50 was more than 100 µM.

The compound `NC(=O)C1CCc2c1[nH]c1ccc(Cl)cc21` (configuration not stated) gave a 50% inhibitory concentration (IC50) in series [4] of 0.409 µM.

Compound `NC(=O)C1CCc2c1[nH]c1ccccc21` (configuration not stated) yielded an IC50 in series [4] of 2.67 µM.

For `CC(=O)N1CCc2c([nH]c3ccc(Cl)cc23)C1C(N)=O` (configuration not stated), in series [4], the 50% inhibitory concentration (IC50) worked out at 79.9 µM.

`Cc1ccc2c(c1)c1c(n2C)C(C(N)=O)CCC1` (configuration not stated) gave an IC50 in [4] of more than 100 µM.

Compound `CCN(CC)C(=O)C1CCCc2c1[nH]c1ccc(Cl)cc21` (configuration not stated) displayed a half-inhibitory concentration (IC50) in series [4] of more than 100 µM.

As to `NC(=O)C1CCc2c([nH]c3ccc(Br)cc23)C1` (configuration not stated), in series [4], the IC50 is 2.44 µM.

Take `NC(=O)C1CCCc2c1[nH]c1ccc(O)cc21` (configuration not stated): in series [4], the IC50 worked out at 15 µM.

Turning to `NC(=O)C1NCCc2c1[nH]c1ccc(Cl)cc21` (configuration not stated), the IC50 in [4] is 18 µM.

Regarding `NC(=O)C1NCCc2c1[nH]c1ccc(Br)cc21` (configuration not stated), the IC50 in series [4] was more than 100 µM.

Consider `Cc1ccc2[nH]c3c(c2c1)CCCC3(C)C(N)=O` (configuration not stated), for which the 50% inhibitory concentration (IC50) in [4] was 13 µM.

Regarding `NC(=O)C1CCCc2c1[nH]c1ccc(Cl)cc21` (configuration not stated), the IC50 on Histone deacetylase is more than 100 µM. Further, the inhibition at 1 µM at CYP3A4 was -26%; against CYP2D6 it was -5%; against CYP2C9, -5%; at CYP2C19, 6%; against CYP1A2, 11%. In series [2], the inhibition at 10 µM was 0%. In addition, the half-life – broadly, the time in which the quantity being followed falls by half – was more than 1 h in series [6] and 2.27 h in series [7]. Also, in the series with Liver microsomes, the Stability entry is “Stable”.

On to `NC(=O)C1CCCCc2c1[nH]c1ccc(Cl)cc21` (configuration not stated), for which the concentration for half-maximal inhibition (IC50) (in [1]; against Histone deacetylase) was more than 100 µM each time. The inhibition at 1 µM is -12% against CYP3A4; 3% at CYP2D6; 11% at CYP2C9; 23% at CYP2C19; 23% on CYP1A2. For the same compound, the half-life in series [6] was more than 1 h; in [7] it was 1.57 h. Also, in the series with Liver microsomes, the Stability entry is given as “Stable”.
